The results in this text go back to patent publication EP0934933A1, “Phthalazinones” (Byk Gulden Lomberg Chemische Fabrik GmbH, priority 1998, dated 1999).

In the experiment the test system is PDE4. The experiment can be described thus: Inhibition of PDE 4 activity (method of Bauer and Schwabe, adapted to microtitre plates). Conditions: measured as -logIC50 (mol/l). The format is biochemical.
For `CCOc1ccc(-c2nn(CC(=O)c3ccccc3)c(=O)c3ccccc23)cc1OCC` [Compound 2, 2-(2-Phenyl-2-oxoethyl)-4-(3,4-diethoxyphenyl)-2H-phthalazin-1-one], the “-logIC50” value amounted to 7.01.

Take `CCOc1cc(-c2nn(CC(=O)c3ccccc3)c(=O)c3ccccc23)ccc1OC` [Compound 3, 4-(3-Ethoxy-4-methoxyphenyl)-2-(2-phenyl-2-oxoethyl)-2H-phthalazin-1-one]: the “-logIC50” value is 7.28. Consider `COc1ccc(-c2nn(CC(=O)c3ccccc3)c(=O)c3ccccc23)cc1OC1CCCC1` [Compound 4, 4-(3-Cyclopentyloxy-4-methoxyphenyl)-2-(2-phenyl-2-oxoethyl)-2H-phthalazin-1-one], for which the “-logIC50” value is on record as 7.09. As for `COc1ccc(-c2nn(CC(=O)c3ccccc3)c(=O)c3ccccc23)cc1OC(F)F` [Compound 5, 4-(3-Difluoromethoxy-4-methoxyphenyl)-2-(2-phenyl-2-oxoethyl)-2H-phthalazin-1-one], the figure is 7.14.

Take `COc1ccc(-c2nn(CC(=O)c3ccccc3OC)c(=O)c3ccccc23)cc1OC` [Compound 7, 4-(3,4-Dimethoxyphenyl)-2-[2-(2-methoxyphenyl)-2-oxoethyl]-2H-phthalazin-1-one]: the “-logIC50” value turned out to be 7.52. `COc1ccc(OC)c(C(=O)Cn2nc(-c3ccc(OC)c(OC)c3)c3ccccc3c2=O)c1` [Compound 10, 4-(3,4-Dimethoxyphenyl)-2-[2-(2,5-dimethoxyphenyl)-2-oxoethyl]-2H-phthalazin-1-one]: the “-logIC50” value came to 6.99. Consider `COc1ccc(-c2nn(CC(=O)c3cc(Cl)c(N)c(Cl)c3)c(=O)c3ccccc23)cc1OC` [Compound 12, 4-(3,4-Dimethoxyphenyl)-2-[2-(4-amino-3,5-dichlorophenyl)-2-oxoethyl]-2H-phthalazin-1-one], for which the “-logIC50” value came to 6.85.
